The text below walks through data of US6919470B2, “Aryl and heteroaryl sulfonates” (priority 2000, dated 2005).

The target of one data set is T1, rat CB1 receptor (Rattus norvegicus, UniProt P20272).
T1 construct: expressed in transfected cells; host or cells: CHO (CHOluc9) luciferase reporter cells
In words: Rat CB1 luciferase reporter gene test. Type of data set: cell-based. The following applies: rat CHOCB1 reporter cell line, forskolin-stimulated luciferase activity. The method, then: 1. Rats CB1 Luciferase Reporter Gene Test
Stock cultures of a rat CHOCB1 reporter cell line were prepared by the method described in WO-A-98/37061, page 55 et seq.
The following test protocol was used for the substance screening: the stock cultures were cultivated in 50% of Dulbecco's modified Eagle medium/50% F-12 (DMEM/F12) with 10% FCS at 37° C. under 10% CO2 and split 1:10 after 2 to 3 days in each case. Test cultures were seeded at 5000cells […] in 96-well plates and cultured at 37° C. for 70 hours. The cultures were then cautiously washed with phosphate-buffered saline and reconstituted with serum-free Ultra-CHO medium (Bio-Whittaker). The substances dissolved in DMSO were diluted 1× in medium and pipetted into the test cultures (maximum DMSO final concentration in test mixture: 0.5%). 20 minutes later, forskolin was added and the cultures were then incubated in an incubator at 37° C. for 3 hours. […] Immediately thereafter luciferase substrate solution (2.5 mM ATP, 0.5 mM luciferin, 0.1 mM coenzyme A, 10 mM tricine, 1.35 mM MgSO4, 15 mM DTT, pH 7.8) and briefly shaken, and the luciferase activity was measured using a Hamamatsu camera system. […]
The IC50 values were calculated using the GraphPadPrism program (Hill equation, specifically: one-site competition).
For orientation: Reporter assays use an easily measured gene product as a stand-in for the process of interest.

For data set [1], the system named is rat. Put plainly: Axotomy of sciatic branches in the rat (chronic pain model). Type of data set: in vivo. The following applies: orally, acute administration, 60 minutes before the test. As for the experimental part: 7. Axotomy of Sciatic Branches in the Rat (Chronic Pain Model)
Under pentobarbital anesthesia, the trifurcation of a sciatic nerve is exposed, and the peroneal and tibial branches are axotomized after the nerves have been ligated proximal of the axotomy site. Control animals undergo a sham operation. After the operation, the axotomized animals develop chronic mechanical allodynia and thermal hyperalgesia.
The mechanical allodynia is tested, comparing with sham-operated animals, with the aid of a pressure transducer (electronic von Frey anesthesiometer, IITC Inc.-Life Science Instruments, Woodland Hills, Calif., USA).
The thermal hyperalgesia can be determined by measuring the latency time within which a rat removes a paw from the area of a radiant heat source (plantar test, Ugo Basile (Milan)).
The substance was administered by various administration routes (i.v., i.p., orally, i.t., i.c.v., transdermally) at various times before the pain testing.
Example 2 reduces the hyperalgesia in the model at a minimally effective dose of 1 mg/kg orally (acute administration, 60 minutes before the test).

Data set [2] in a line: Microsomal stability investigation (rat liver microsomes). The following applies: predicted from microsomal data. It counts as in vitro ADME. An excerpt: The metabolic stability of the compounds according to the invention can be found in the following in vitro assay: 4. Microsomal Stability Investigation The metabolic stability of the compounds according to the invention can be measured in rat liver microsomes (in analogy to J. Pharmacol. Exp. Ther. 1997, 283. 46-58). To determine the microsomal stability and extrapolate to the maximum possible bioavailability (Fmax) owing to the first-past effect in the liver (phase 1 reactions), the substance is incubated in low concentration with microsomal protein, with addition of cofactors, at 37° C. for 15 minutes. The incubation and the sampling take place on a modified automatic pipettor from Canberra Packard. Microsomal data (rat liver microsomes) predict a maximum possible availability of up to 100%.

Data set [3] can be described thus: Pharmacokinetics in the rat. Type of data set: in vivo. As for the experimental part:
The bioavailability of the compounds according to the invention, and other pharmacokinetic parameters, can be determined in vivo in the following way:
5. Pharmacokinetics in the Rat
The substance is infused through a Braunüle in a lateral tail vein directly into the blood stream over 15 minutes. A calibrated 20 ml syringe is used for accurate administration of the chosen dose and volume. A Braun Melsungen No. 152440/1 pump is used for the infusion.
The substance is administered as bolus by gavage.
Blood samples are collected from catheterized animals jugular vein) in heparinized tubes. The blood is centrifuged and the plasma is prepared in a suitable manner for analysis (LC-MS-MS). The plasma is stored at <−15° C. until analyzed.
d) Pharmacokinetic Results of Example 2

Another data set deals with T2, CB1 receptor (Rattus norvegicus, UniProt P20272).
T2 construct: from tissue; host or cells: whole animal (rat), oral dosing
Put plainly: Rat hypothermia agonism test. It counts as in vivo. The following applies: oral administration. The method, then:
The in vivo agonistic effect on the CB1 receptor was examined in the rat hypothermia assay.
Five minutes after determining the basal body temperature via an esophageal temperature probe, the test substance is administered (orally). A control group receives, likewise orally, only the solvent for the test substances (Cremophors EL 1-10%+distilled water). The body temperature is measured 120 and 240 minutes after oral administration. The size of the group for each dose is 5-7 animals (rats).
Rat Hypothermia Agonism Test

Data set [4] relates to rat. Put plainly: 6-Hydroxydopamine (6-OH-DA) lesion in the rat, staircase test. It counts as in vivo. The following applies: oral dose of 1.0 mg/kg bid. The method, then: 8.6-Hydroxydopamine (6-OH-DA) Lesion in the Rat
Degeneration of dopaminergic nigrostriatal and striatopallidal neurotransmission is the main characteristic of Parkinson's disease. The clinical picture of Parkinson's disease can be simulated to a large extent in an animal model in which the neurotoxin 6-OH-DA is injected intracerebrally in rats.
Male rats (Harlan Winkelmann, Germany; weight at start of test: 200-250 g) were used for the experiments described. The experimental animals were housed under controlled conditions (humidity, temperature) with a 12-hour light/dark cycle. Those animals not involved in an experiment had free access to water and feed.
On the day of the operation, 30 minutes before the lesion, pargyline (Sigma, St. Louis, Mo., USA; 50 mg/kg i.p.) and desmethylimipramine HCl (Sigma; 25 mg/kg i.p.) were administered to the animals in order respectively to suppress 6-hydroxydopamine metabolism and prevent uptake of 6-hydroxydopamine in noradrenergic structures. […]
After the operation, the animals were placed on a warm plate and, after regaining consciousness while being monitored, returned to their cage and received feed and water ad libitum. […]
The motor deficits after the lesion were quantified using the following test as described in the respective literature: […]

T1 sequence (P20272 whole entry): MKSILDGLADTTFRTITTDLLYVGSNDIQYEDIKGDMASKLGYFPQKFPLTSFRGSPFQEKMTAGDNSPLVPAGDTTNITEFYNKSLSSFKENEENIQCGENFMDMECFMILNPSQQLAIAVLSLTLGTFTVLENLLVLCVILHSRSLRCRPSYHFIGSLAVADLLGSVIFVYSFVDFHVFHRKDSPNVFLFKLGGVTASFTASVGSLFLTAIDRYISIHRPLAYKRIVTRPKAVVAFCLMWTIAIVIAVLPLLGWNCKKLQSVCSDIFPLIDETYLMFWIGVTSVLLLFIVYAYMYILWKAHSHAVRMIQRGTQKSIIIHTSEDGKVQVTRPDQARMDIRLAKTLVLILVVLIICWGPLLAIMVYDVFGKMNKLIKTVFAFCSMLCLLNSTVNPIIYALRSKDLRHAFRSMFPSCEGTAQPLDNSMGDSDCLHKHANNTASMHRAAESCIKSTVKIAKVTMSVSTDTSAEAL
T2 sequence (P20272 whole entry): as above

On to `CCCCCS(=O)(=O)Oc1cccc(-c2cccc(C(F)(F)F)c2)c1` [Example 3], for which the IC50 against rat CB1 receptor was 2.4 nM.

In turn, `Cc1ccnc(-c2cccc(OS(=O)(=O)CCCC(F)(F)F)c2)c1` [Example 17] came in with an IC50 on rat CB1 receptor of 16 nM.

Take `O=S(=O)(CCCC(F)(F)F)Oc1cccc(-c2cccc(C(F)(F)F)c2)c1` [Example 2]: in the data set on rat [1], the “minimally effective dose reducing the hyperalgesia” value came to 1 mg/kg. For the same compound, in data set [2], the “maximum possible availability (Fmax)” value is “up to 100%”. Also, in data set [3] (oral, dose 3 mg/kg), the AUCnorm came to 0.322 kg·h/L, the “Cmax,norm” value was 0.0674 kg/L and the F is given as 100%. Besides, in data set [3] (plasma, iv, dose 0.3 mg/kg), the clearance is 51.7 mL/min/kg and the half-life was 2.2 h. Further, in data set [3] (plasma, iv, dose 0.3 mg/kg, read-out: Vss), the Vd was 5.8 L/kg. Also, in data set [3] (plasma, oral, dose 3 mg/kg), the Tmax was found to be 3 h and the half-life is 1.7 h. Further, the “ED−1° C. (effective dose for reducing the body temperature by 1° C.)” value on CB1 receptor turned out to be 5 mg/kg. For the same compound, the “fine coordination of the forepaws in the staircase test” value in the data set on rat [4] is recorded as “improvement in the fine coordination of the forepaws”.

For orientation: IC50 means the concentration that gives 50% inhibition. Read a high IC50 as weaker potency. In general, clearance refers to the rate of elimination divided by the concentration. A lower clearance goes with a low capacity for elimination. The half-life is the time in which the quantity being followed falls by half. A lower half-life goes with fast loss. In general, Tmax refers to the time at which the peak concentration occurs.
